Positions of bridges follow the written chain, without caps; N, C: chain ends. Non-standard residues stand in square brackets, D forms with d. Residues, ends and D or L forms follow the SMILES beside them. *: point of attachment. X1 = NC[C@@H](CC(=O)*)c1cccc(Cl)c1; Dab = NCC[C@H](N)C(=O)O; Dap = NC[C@H](N)C(=O)O
Test: clinical
Design: species or system human
Conditions: in vivo; for AUC(0-inf): AUC0–inf; for clearance: CL; for Vd: Vz
Description: This was a single-center, phase 1, randomized, double-blind, placebo-controlled, first-in-human study to assess the safety, tolerability, and PK of SPR206 following SAD and MAD administrations (Fig. 7). In the SAD phase, subjects received a single i.v. dose of SPR206, and in the MAD phase, subjects received i.v. doses of SPR206 every 8 h (q8h) over a period of 7 to 14 days. SPR206 was administered as a 1 h i.v. infusion.
Maximum plasma concentration (Cmax), area under the concentration-time curve from time zero to last measurable time point (AUC0–t), area under the concentration-time curve from time zero to infinity (AUC0–inf), area under the concentration-time curve from time zero to tau (AUC0–tau), time to maximum concentration (Tmax), terminal elimination rate constant (kel), terminal half-life (t1/2), terminal clearance (CL), and volume of distribution (Vz) were determined. In addition, area under the concentration-time curve from 0 to 24 h after the start of infusion (AUC0–24) was determined for the SAD phase, and area under the concentration-time curve from time zero to 8 h from start of infusion (AUC0–8) on day 1 and 0 to 48 h (AUC0–48) following the last dose on day 14 as well as predose trough concentrations were determined for the MAD phase. Urine parameters included cumulative amount of drug excreted in successive urine intervals (Ae), renal clearance (CLR), fraction of cumulative fraction of dose recovered in urine as unchanged drug (Fe), and percentage fraction of cumulative fraction of dose recovered in urine as unchanged drug (Fe%). PK parameters were determined by noncompartmental analysis using Phoenix WinNonlin 8.1.
For the SAD phase, blood samples were obtained predose and at 30, 60, 75, 90, 105, 120, and 150 min and at 3, 5, 8, 12, and 24 h following the start of infusion. Urine was collected for PK assessment predose and over the intervals of 0 to 4 h, 4 to 8 h, 8 to 12 h, and 12 to 24 h after the start of infusion.
In the MAD phase, plasma samples for PK analysis were collected (i) on day 1—pre-dose and at 30, 60, 75, 90, 105, 120, and 150 min and at 3, 5, and 8 h following start of the first infusion; (ii) prior to the morning dose (within 10 min) on days 2, 3, 5, 7, 9, 11, and 13; and (iii) predose and 30, 75, 90, 105, 120, and 150 min and 3, 5, 8, and 12 h (day 14), 24, 36 (day 15), and 48 h (day 16) following start of the last infusion. Urine was collected for PK assessment on day 1 predose, over the intervals 0 to 4 h and 4 to 8 h after start of first infusion, and on days 14 and 15 over the intervals 0 to 4 h, 4 to 8 h, 8 to 12 h, and 12 to 24 h after start of day 14 infusion. Total 24-h urine for calculating CrCl was collected from the morning of day −1 to predose on day 1 and on days 15 and 16 over the interval from 24 to 48 h after the start of the day 14 infusion. Urine creatinine concentrations were measured using 24-h collections prior to the first dose on day 1 and over the 24 to 48 h following start of infusion of the last dose (day 14). Plasma and urine samples for SPR206 levels were analyzed using a validated liquid chromatography-tandem mass spectrometry (LC-MS/MS) method. The assay range for SPR206 was 50 to 5,000 ng/ml in plasma and 100 to 50,000 ng/ml in urine. In plasma, assay precision was 1.3 to 7.7%, accuracy was 1.2 to 9.5%, stability was 194 h at 4°C, and reproducibility was 98.4%. In urine, assay precision was 1.7 to 7.5%, accuracy was −4.8 to 7.3%, stability was 147 h at 4°C, and reproducibility was 97.8%.
Plasma and urine concentrations and PK parameters for SPR206 were summarized for each treatment using descriptive statistics. In the SAD/MAD study, geometric means were calculated for AUC and Cmax. Analyses using linear models were performed to assess dose proportionality (both single dose and multiple dose), time dependence, accumulation, and attainment of steady state after multiple doses. […]

CC(C)C[C@@H]1NC(=O)[C@@H](Cc2ccccc2)NC(=O)[C@H](CCN)NC(=O)[C@@H](NC(=O)[C@H](CN)NC(=O)[C@@H](NC(=O)C[C@H](CN)c2cccc(Cl)c2)[C@@H](C)O)CCNC(=O)[C@H]([C@@H](C)O)NC(=O)[C@H](CCN)NC(=O)[C@H](CCN)NC1=O [SPR206] (X1-T[Dap][Dab][Dab][dF]L[Dab][Dab]T; lactam 3-C (inferred))
Tmax (human): 1.1 to 1.3 h
accumulation ratio for AUC0–inf (human): 1.3-1.8
accumulation ratio for Cmax (human): 1.1-1.3
geometric CV for AUC0-inf (human): 6.9-17.4%
AUC0–8 (human, 25 mg): 4,391 ± 740 h · ng/ml
AUC0–inf (human, 25 mg): 5,197 ± 945 h · ng/ml
AUC%ext (human, 25 mg): 10.0 ± 4.5 ng·h/mL
CL (human, 25 mg): 4.9 ± 0.9 L/h
Cmax (human, 25 mg): 1,410 ± 241 ng/ml
Vz (human, 25 mg): 21.3 ± 3.6 L
half-life (human, 25 mg): 2.7 ± 0.2 h
AUC(0-t) (human, 25 mg, AUC0–8): 5880 ng·h/mL
AUC(0-t) (human, 25 mg, AUC0–48): 7680 ng·h/mL
AUC(0-inf) (human, 25 mg): 7690 ng·h/mL
clearance (human, 25 mg): 73.3 mL/min
Cmax (human, 25 mg, Cmax): 1610 ng/mL
half-life (human, 25 mg, Half-life): 4 ± 0.6 h
Vd (human, 25 mg): 18.9 ± 2.6 L
AUC0–8 (human, 50 mg): 7,955 ± 951 h · ng/ml
AUC0–inf (human, 50 mg): 9,243 ± 1,417 h · ng/ml
CL (human, 50 mg): 5.5 ± 0.8 L/h
Cmax (human, 50 mg): 2,525 ± 413 ng/ml
half-life (human, 50 mg): 2.7 ± 0.3 h
AUC(0-t) (human, 50 mg, AUC0–8): 10000 ng·h/mL
AUC(0-t) (human, 50 mg, AUC0–48): 12400 ng·h/mL
AUC(0-inf) (human, 50 mg): 12400 ng·h/mL
clearance (human, 50 mg): 83.3 mL/min
Cmax (human, 50 mg, Cmax): 2900 ng/mL
half-life (human, 50 mg, Half-life): 3.5 ± 0.9 h
Vd (human, 50 mg): 21.5 ± 1.8 L
AUC0–48 (human, 100 mg): 29,828 ± 5,112 h · ng/ml
AUC(0-t) (human, 100 mg, AUC0–8): 21300 ng·h/mL
AUC(0-t) (human, 100 mg, AUC0–48): 27500 ng·h/mL
AUC(0-inf) (human, 100 mg): 27700 ng·h/mL
clearance (human, 100 mg): 80 mL/min
Cmax (human, 100 mg, Cmax): 6340 ng/mL
Vd (human, 100 mg): 20.8 ± 2.9 L
AUC0–8 (human, 150 mg): 27,492 ± 3,452 h · ng/ml
AUC0–inf (human, 150 mg): 30,981 ± 4,189 h · ng/ml
CL (human, 150 mg): 4.9 ± 0.6 L/h
Cmax (human, 150 mg): 8,990 ± 1,056 ng/ml
Vz (human, 150 mg): 19.6 ± 3.2 L
higher plasma AUC0–8 and Cmax relative to the mean values for the cohort (human, 150 mg): approximately 23%
AUC(0-t) (human, 150 mg, AUC0–8): 41500 ng·h/mL
AUC(0-t) (human, 150 mg, AUC0–48): 55500 ng·h/mL
AUC(0-inf) (human, 150 mg): 56000 ng·h/mL
clearance (human, 150 mg): 61.7 mL/min
Cmax (human, 150 mg, Cmax): 11500 ng/mL
Vd (human, 150 mg): 17.1 ± 2.1 L
half-life (human, half-life): 2.4 to 4.1 h
Tmax (human, iv, 10 mg): 1 h
AUC(0-t) (human, iv, 10 mg, AUC0–8): 1560 ng·h/mL
AUC(0-inf) (human, iv, 10 mg): 1810 ng·h/mL
clearance (human, iv, 10 mg): 93.3 mL/min
Cmax (human, iv, 10 mg, Cmax): 495 ± 46.5 ng/mL
half-life (human, iv, 10 mg, Half-life): 2.6 ± 0.1 h
Vd (human, iv, 10 mg): 21 ± 3.4 L
Tmax (human, iv, 25 mg): 1 h
AUC(0-t) (human, iv, 25 mg, AUC0–8): 3810 ng·h/mL
AUC(0-inf) (human, iv, 25 mg): 4440 ng·h/mL
clearance (human, iv, 25 mg): 96.7 mL/min
Cmax (human, iv, 25 mg, Cmax): 1290 ng/mL
half-life (human, iv, 25 mg, Half-life): 2.8 ± 0.2 h
Vd (human, iv, 25 mg): 23.5 ± 4.3 L
Tmax (human, iv, 50 mg): 1 h
AUC(0-t) (human, iv, 50 mg, AUC0–8): 9380 ng·h/mL
AUC(0-inf) (human, iv, 50 mg): 10700 ng·h/mL
clearance (human, iv, 50 mg): 78.3 mL/min
Cmax (human, iv, 50 mg, Cmax): 3420 ng/mL
half-life (human, iv, 50 mg, Half-life): 2.6 ± 0.3 h
Vd (human, iv, 50 mg): 17.8 ± 2.9 L
Tmax (human, iv, 100 mg): 1.1 h
AUC(0-t) (human, iv, 100 mg, AUC0–8): 17300 ng·h/mL
AUC(0-inf) (human, iv, 100 mg): 20400 ng·h/mL
clearance (human, iv, 100 mg): 83.3 mL/min
Cmax (human, iv, 100 mg, Cmax): 5330 ng/mL
half-life (human, iv, 100 mg, Half-life): 3 ± 0.3 h
Vd (human, iv, 100 mg): 21.4 ± 2.8 L
Tmax (human, iv, 200 mg): 1.1 h
AUC(0-t) (human, iv, 200 mg, AUC0–8): 34500 ng·h/mL
AUC(0-inf) (human, iv, 200 mg): 40900 ng·h/mL
clearance (human, iv, 200 mg): 81.7 mL/min
Cmax (human, iv, 200 mg, Cmax): 11300 ng/mL
half-life (human, iv, 200 mg, Half-life): 3.4 ± 0.7 h
Vd (human, iv, 200 mg): 24 ± 3.1 L
Tmax (human, iv, 300 mg): 1.1 h
AUC(0-t) (human, iv, 300 mg, AUC0–8): 57700 ng·h/mL
AUC(0-inf) (human, iv, 300 mg): 71000 ng·h/mL
clearance (human, iv, 300 mg): 70 mL/min
Cmax (human, iv, 300 mg, Cmax): 18200 ng/mL
half-life (human, iv, 300 mg, Half-life): 4.1 ± 0.4 h
Vd (human, iv, 300 mg): 25.4 ± 3.3 L
Tmax (human, iv, 400 mg): 1.1 h
AUC(0-t) (human, iv, 400 mg, AUC0–8): 89300 ng·h/mL
clearance (human, iv, 400 mg): 61.7 mL/min
Cmax (human, iv, 400 mg, Cmax): 25400 ng/mL
half-life (human, iv, 400 mg, Half-life): 3.7 ± 0.5 h
Vd (human, iv, 400 mg): 19.4 ± 3.2 L
dose proportionality estimate (90% CI) for AUC0–inf: 1.11 (1.07, 1.14)
dose proportionality estimate (90% CI) for AUC0–last: 1.14 (1.11, 1.18)
dose proportionality estimate (90% CI) for Cmax: 1.05 (1.02, 1.08)
estimate of the exponent from the power model (90% CI) for AUC0–inf: 1.03 (0.94, 1.12)
estimate of the exponent from the power model (90% CI) for AUC0–last: 1.07 (0.98, 1.16)
estimate of the exponent from the power model (90% CI) for Cmax: 1.03 (0.96, 1.10)
intersubject variability in exposure: 10-25%
steady state achieved (based on Ctrough): ≤ 2 days
